One test deals with angiogenesis. The following applies: Cancer Research 51, 672-675, Brem et al; vs combination of heparin and cortisone; cited from earlier work.
Test [1] deals with Adult Bovine Aortic Endothelial (ABAE) cell line. Kind of test: Antiproliferative activity in ABAE cells, PROTOCOL 1 (48 h, SRB). Format: cell-based. The following applies: Bos taurus. As to the method: PROTOCOL 1, 2, and 3 are described in greater detail hereinbelow. In general, according to PROTOCOLS 1 and 2, the target ABAE and/or Human Tumor cells are exposed to the compound of Formula I for 48 hours. PROTOCOL 3 exposes ABAE cell to the compound for 4 days. A detailed description of the protocol is as follows: Antiproliferative Activity in Human Tumor and Adult Bovine Aortic Endothelial (ABAE) Cell Lines The antiproliferative activity of the compounds of Formula I of the present invention is evaluated in a panel comprised of human tumor cell lines and an adult bovine aortic endothelial cell line (ABAE). […] The number of cells on the plate are quantitated using a protein dye-binding assay (Monks et al., 1991). […] The optical densities are read from an automatic spectrophotometric plate reader (Dynatech) directly to a main frame computer (VAX 8600). […] Mean values and standard errors are determined from duplicate wells. […] The number of cells after treatment (P), as % of control, is calculated for every concentration of drug, as follows: [formula] wherein: T is optical density measurement for treated cells after 48 hours; C is optical density measurement for untreated cells after 48 hours; Co is optical density measurement for cells at the time of drug addition. IC50 of growth inhibition is calculated from the sets of P values using the RS-1 data package (BBN Software). […]

Another test deals with SW620. Kind of test: Antiproliferative activity in human colon tumor cell line SW620. The following applies: Homo sapiens, SW-620, PROTOCOL 1 and PROTOCOL 2. The format is cell-based. The procedure:
PROTOCOL 1, 2, and 3 are described in greater detail hereinbelow. In general, according to PROTOCOLS 1 and 2, the target ABAE and/or Human Tumor cells are exposed to the compound of Formula I for 48 hours. PROTOCOL 3 exposes ABAE cell to the compound for 4 days. A detailed description of the protocol is as follows:
Antiproliferative Activity in Human Tumor and Adult Bovine Aortic Endothelial (ABAE) Cell Lines
The antiproliferative activity of the compounds of Formula I of the present invention is evaluated in a panel comprised of human tumor cell lines and an adult bovine aortic endothelial cell line (ABAE). The human tumor cell lines are from:
2) Colon tumors: MIP, CaCo2, and SW620.
All cell lines are maintained in log phase in RPMI 1640 media, supplemented with 5% fetal calf serum, penicillin/streptomycin and 2 mM L-glutamine. Cultures are renewed after 20 passages with cells from a fresh stock of batch-frozen early passage cells. Cell lines are routinely checked for mycoplasma contamination (Genprobe). In a laminar flow hood, cells (1-5×10^4) are plated into 96-well microtiter plates in a volume of 0.1 ml/well with a bulk microtiter dispenser (Denley). […] At this concentration, dimethylsulfoxide has no effect on cell growth. Compounds are added using a Tomtec dispenser which simultaneously dispenses from one 96-well plate, containing the drug dilutions, to the plates containing the cells. After two days of continuous drug exposure, 50% cold trichloroacetic acid (TCA) is added to 10% final concentration to fix the cells, and after 60 minutes at 4° C., the TCA is aspirated and the plates are washed 5 times with deionized water using a microtiter plate washer. The number of cells on the plate are quantitated using a protein dye-binding assay (Monks et al., 1991). A 0.4% solution of the dye, sulforhodamine B, in glacial acetic acid is added to the plates, and the plates are washed 5 times with 1% glacial acetic acid using the automatic plate washed. The bound stain is solubilized with 0.1 ml of 10 mM Tris base. The optical densities are read from an automatic spectrophotometric plate reader (Dynatech) directly to a main frame computer (VAX 8600).
Positive controls, that include standard chemotherapeutic drugs (i.e., adriamycin, cisplatin, etc.), are included in every experiment.
Background optical density measurements (complete media-cells, and complete media+drug-cells) are automatically subtracted from the appropriate control and test wells. Mean values and standard errors are determined from duplicate wells. A measure is also made of the optical density at time when the drugs are added. The number of cells after treatment (P), as % of control, is calculated for every concentration of drug, as follows: [formula] wherein: T is optical density measurement for treated cells after 48 hours;
C is optical density measurement for untreated cells after 48 hours;
Co is optical density measurement for cells at the time of drug addition.
IC50 of growth inhibition is calculated from the sets of P values using the RS-1 data package (BBN Software).
The antiproliferative activity of the compounds of Formula I is evaluated in a panel comprised of human tumor cell lines and an adult bovine aortic endothelial cell line (ABAE) as listed in PROTOCOL 1. This assay is a modification of PROTOCOL 1. The modifications include:
1) each concentration for each compound is tested in a single well;
2) compounds are tested at 20, 4, 0.8, 0.16 microgram/ml and additionally in some experiments at 100 and 0.32 microgram/ml;
3) samples are pipetted into a 96-well plate for each of the cell lines by a Beckman Biomek 1000 SL robot;
4) after fixing with TCA each well is washed with 0.35 ml distilled water twice, not five times;
5) after staining with sulforhodamine B each well is washed 3 times, not five times; […]

Molecules are shown by their SMILES. ≈ marks a conversion by molar mass, not a printed value.

In general, IC50 refers to the point on the concentration scale where inhibition reaches its midpoint. Lower therefore signals greater potency in that assay. With `CN(C)c1ccc(O)c2c1C[C@H]1C[C@H]3[C@H](N(C)C)C(O)=C(C(N)=O)C(=O)[C@@]3(O)C(O)=C1C2=O` [Minocycline, reference compound], the “extent of angiogenesis inhibition” value with angiogenesis is “comparable to that of the combination therapy of heparin and cortisone”. Further, the IC50 in test [1] was 6.8 mg/L (≈ 14.9 µM); with SW620, 6.5 mg/L (≈ 14.2 µM).

Source of the values: patent US5563130A, “Methods for inhibiting angiogenesis, proliferation of endothelial or tumor cells and tumor growth” (American Cyanamid Company, priority 1994, dated 1996).
